From patent US20260248810A1, “COMPOSITIONS FOR TREATING A SUBJECT FROM SEXUAL DYSFUNCTION” (priority 2023, published 2026)

Experiments:
[1] = cited from earlier work
[2] = test system: male heterosexual patients with sexual problems (erection problems and reduced sexual arousal); test: Self-rated sexual arousal (scale 1 to 10) before and during sexual activity, sublingual androgen(s) followed by Viagra; format: in vivo, human; conditions: history of the two male patients before the alternative treatments
Experimental: (§1) The first example concerns two male heterosexual patients with sexual problems (erection problems and reduced sexual arousal). […] This prompted two alternative forms of treatment. The first treatment involved taking 5 mg sublingual testosterone (in a solution consisting of alcohol, denaturalized water, testosterone and cyclodextrins) followed 2.5 hours later by taking Viagra (sildenafil 50 mg). The second treatment consisted of simultaneously taking 5 mg sublingual testosterone and 5 mg sublingual dihydrotestosterone (DHT) (in a solution consisting of alcohol, denaturalized water, DHT and cyclodextrins), followed after 2.5 hours by taking Viagra (50 mg). The testosterone and DHT solutions were prepared by a pharmacist on the request of a general practitioner. On both treatment days, patients were asked to engage in sexual activity between 1 and 1.5 hours after taking Viagra. […] Patients were also asked to answer some questions about their sexual arousal immediately before and within an hour after sexual activity.

[3] = Plasma total and free testosterone after sublingual androgen intake in two male patients; conditions: blood plasma 15 minutes after sublingual intake, 5 mg T, or 5 mg T + 5 mg DHT; for Free T: measured, not calculated; for concentration at 15 min: human, plasma, other: sublingual, 5 mg, Total T
Experimental: as §1
The table below describes the effects of the different treatments on ‘total testosterone’ and ‘free testosterone (i.e. measured, not calculated)’ for both patients: […]

[4] = sublingually with cyclodextrins; women about 0.1-2 mg, men about 0.5-20 mg; cited from earlier work

CC[C@H](C)[C@@H]1NC(=O)[C@H](Cc2ccc(O)cc2)NC(=O)[C@@H](N)CSSC[C@@H](C(=O)N2CCC[C@H]2C(=O)N[C@@H](CC(C)C)C(=O)NCC(N)=O)NC(=O)[C@H](CC(N)=O)NC(=O)[C@H](CCC(N)=O)NC1=O [oxytocin]
time of behavioral and neural effects after administration ([1]; dosages between 20-50 IE): 15 to 90 min | T-max of oxytocin levels in the blood circulation ([1]; intranasal administration): approximately 15 minutes | return of oxytocin levels to baseline ([1]; intranasal administration): approximately 90 minutes

CCCc1nn(C)c2c(=O)[nH]c(-c3cc(S(=O)(=O)N4CCN(C)CC4)ccc3OCC)nc12 [Viagra, sildenafil]
effect of the usual treatments on the sexual problems [2]: little or no effect

C[C@]12CC[C@H]3[C@@H](CCC4=CC(=O)CC[C@@]43C)[C@@H]1CC[C@@H]2O [T, 17-β-hydroxyandrost-4-en-3-one]
Free T ([3]; Patient 1): 440 pml/L | Free T ([3]; Patient 2): 1030 pml/L | concentration at 15 min ([3]; Patient 1): 0.0287 µM | concentration at 15 min ([3]; Patient 2): 0.0439 µM | time to pharmacological peak in testosterone [4]: about 15 minutes
